Source: US10584317B2 (priority 2006, dated 2020)
Entries after “also recorded” stand apart in the source; their conditions may differ. Like-named read-outs stand apart in the source and are kept apart here.

Columns and labels:
GI-101A tumors [1] = system: GI-101A tumors; design: species or system nude mice; conditions: mouse, in vivo
PANC-1 tumors [2] = assay type: in vivo, nude mice
A549 tumors = system: A549 tumors; design: species or system nude mice; conditions: mouse, in vivo
PANC-1 tumors [3] = system: PANC-1 tumors; design: species or system nude mice; conditions: mouse, in vivo
GI-101A tumors [4] = conditions: mouse, in vivo
GLV-1h71 = assay type: cell-based, vaccinia virus
GLV-1h74 = assay type: cell-based, vaccinia virus
GLV-1h68 = assay type: cell-based, vaccinia virus
GLV-1h73 = assay type: cell-based, vaccinia virus

## N.N.[Cl][Pt][Cl] [Cisplatin, cis-diamminedichloroplatinum]
GI-101A tumors [1]
  Effect on tumor growth: decreased the rate of tumor growth, but did not shrink tumors
PANC-1 tumors [2]; PANC-1
  Effect on tumor growth: unable to arrest tumor growth
PANC-1 tumors [2]; day 36 post-implantation
  Median tumor volume: 170.2 mm^3
PANC-1 tumors [2]; day 46
  Median tumor volume: 296.6 mm^3
PANC-1 tumors [2]; day 52
  Median tumor volume: 254.95 mm^3
PANC-1 tumors [2]; day 57
  Median tumor volume: 326.2 mm^3
PANC-1 tumors [2]; day 63
  Median tumor volume: 460.3 mm^3
PANC-1 tumors [2]; day 72
  Median tumor volume: 663.4 mm^3
PANC-1 tumors [2]; day 79
  Median tumor volume: 1022.0 mm^3
PANC-1 tumors [2]; day 86
  Median tumor volume: 1718.3 mm^3
PANC-1 tumors [2]; day 94
  Median tumor volume: 2520.4 mm^3
PANC-1 tumors [2]; day 100
  Median tumor volume: 3254.1 mm^3

## COc1cccc2c1C(=O)c1c(O)c3c(c(O)c1C2=O)C[C@@](O)(C(=O)CO)C[C@@H]3O[C@H]1C[C@H](N)[C@H](O)[C@H](C)O1 [Doxorubicin, doxorubicin]
GI-101A tumors [1]
  Effect on tumor growth: did not have any effect on the rate of tumor growth

## Nc1ccn([C@@H]2O[C@H](CO)[C@@H](O)C2(F)F)c(=O)n1 [Gemcitabine]
A549 tumors
  Effect on tumor growth: increased tumor growth
PANC-1 tumors [3]
  Effect on tumor growth: moderately decreased tumor growth

## Nc1ccn(C[C@@H](CO)OCP(=O)(O)O)c(=O)n1 [cidofovir]
GI-101A tumors [4]
  Interference with tumor therapy by the virus: did not significantly interfere
  Survival time of GLV-1h74 injected mice: significantly extended
GLV-1h71
  Plaque formation by GLV-1h71: smaller plaques; also recorded: almost completely inhibited
  Size or number of plaques of GLV-1h71 vs control: no significant differences
GLV-1h74
  Number and size of plaques of GLV-1h74: significantly reduced
  Plaque formation by GLV-1h74: smaller plaques
  Size or number of plaques of GLV-1h74 vs control: no significant differences
GLV-1h68
  Plaque formation by GLV-1h68: smaller plaques; also recorded: almost completely inhibited
  Size or number of plaques of GLV-1h68 vs control: no significant differences
GLV-1h73
  Number and size of plaques of GLV-1h73: significantly reduced
  Plaque formation by GLV-1h73: smaller plaques
  Size or number of plaques of GLV-1h73 vs control: no significant differences
